These results are taken from ChEMBL document CHEMBL3507680, “University of Dundee, Gates Library screen for HepG2 cell viability”.

The data set can be described thus: Human HepG2 cell viability assay in 384 well format. The class given is toxicity, cell-based. Also noted: dose 125 nL, time 70.5 hour; cytotoxicity at 70.5 h: concentration not given beside the values. Conditions: HepG2 cells, read-out: Inhibition.
Regarding `CC(=O)Nc1cc(CCC2CCN(C(=O)c3ccccn3)CC2)ccn1`, the cytotoxicity at 70.5 h was -14.2%. In the case of `CC(=O)N(C)Cc1cncc(C2CCCN2C2CCOCC2)n1` (stereo not drawn), the cytotoxicity at 70.5 h was -9.86%.

Take `CS(=O)(=O)N1CCCC(Cc2ccnc(Nc3ccccn3)c2)C1` (stereo not drawn): the cytotoxicity at 70.5 h is -6.97%. In the case of `CS(=O)(=O)N1CCC(Cc2cnc(Br)cn2)C1` (stereo not drawn) it was 45.3%; in that of `Cc1ccc2[nH]c(C3CCN(CC(N)=O)CC3)nc2c1`, 9.74%; in that of `CNC(=O)c1sc2ccccc2c1C1CCN(c2cc(C)nc(C)n2)C1` (stereo not drawn), 18.1%.

As for `Cc1nnc(C2CCN(c3ccccc3)CC2)o1`, the cytotoxicity at 70.5 h was -9.47%. As to `Oc1cc(C2CCCCN2C2CCCC2)nc(-c2cccnc2)n1` (stereo not drawn), the cytotoxicity at 70.5 h is -7.77%. Take `Cc1cc(C2CCCN(S(=O)(=O)c3cn(C)cn3)C2)ccn1` (stereo not drawn): the cytotoxicity at 70.5 h is -5.97%. As to `CN(C)C(c1ccccn1)[C@H]1CC[C@H](CNC(=O)CC2CCCC2)CC1` (stereo partly drawn), the cytotoxicity at 70.5 h is -7.26%. In the case of `O=C(O)c1ccccc1-n1cnc(CN2CCc3ccccc3C2)c1`, the cytotoxicity at 70.5 h turned out to be 27.7%.

Consider `Cc1ccc2c(CC(=O)N3C[C@@H](O)[C@H](N(C)C)C3)coc2c1`, for which the cytotoxicity at 70.5 h is -5.65%.

Turning to `CN(C)Cc1ccccc1Cn1cncc1-c1cnn(C)c1`, the cytotoxicity at 70.5 h was -3.97%. Consider `CC(=O)N1CCC(c2cncc(N3CCCCCC3)n2)CC1`, for which the cytotoxicity at 70.5 h was -17.2%. In the case of `Cn1ccc(CN2CC(Cc3nccc4cc[nH]c34)C2)n1`, the cytotoxicity at 70.5 h was -4.79%.

For the compound `CS(=O)(=O)N1CCC(c2cncc(Cl)n2)CC1`, the cytotoxicity at 70.5 h worked out at 27.2%. In the case of `CC(C)CC(NC(=O)c1ccco1)c1nc2cccnc2n1C` (stereo not drawn), the cytotoxicity at 70.5 h was -1.92%.

On to `CC[C@@H](Cn1ncc2ccccc2c1=O)NC(=O)c1cnccn1`, for which the cytotoxicity at 70.5 h is -4.08%. Turning to `CC(C(=O)N(Cc1ccccc1)CC(F)(F)F)S(C)(=O)=O` (stereo not drawn), the cytotoxicity at 70.5 h was -5.47%. In the case of `Cc1cnn(-c2ccc(S(N)(=O)=O)cc2F)c1` it was 20%. Consider `O=C(Cc1cccnc1)NC1COc2ccccc2C1=O` (stereo not drawn), for which the cytotoxicity at 70.5 h was -14.7%.

`COCCN(CCOC)C(=O)c1sc(C)nc1C`: the cytotoxicity at 70.5 h was -6.51%. As for `CC(C)N(C)CC(=O)N1CCCC(n2ccnc2)C1` (stereo not drawn), the cytotoxicity at 70.5 h is 1.97%.

With `CCc1ccccc1CNC(=O)CNCC(F)(F)F`, the cytotoxicity at 70.5 h is -2.89%.

For the compound `Cc1ccc2c(c1C)OCC2NCc1ccc(C#N)cc1` (stereo not drawn), the cytotoxicity at 70.5 h is 16.8%. With `FC(F)(F)Cn1ccnc1CNCCn1cccn1`, the cytotoxicity at 70.5 h is -6.92%.

In the case of `CC(SCCNS(=O)(=O)c1cnn(C)c1)c1cccc(F)c1` (stereo not drawn), the cytotoxicity at 70.5 h was -5.51%. For `c1ccc(-c2nccc(N3CCc4c(ncn4C4CC4)C3)n2)cc1`, the cytotoxicity at 70.5 h is -17.8%. On to `COC(=O)CC(NC(=O)c1cccc(N2CCCC2=O)c1)c1cccs1` (stereo not drawn), for which the cytotoxicity at 70.5 h stood at 4.95%. With `Cn1cnnc1S(=O)(=O)Cc1cc(Cl)c2c(c1)OCO2` the figure was 7.74%; with `Cc1csc(CNC(=O)CCCc2cccs2)n1`, -1.29%; with `FC(F)(F)CN1CCC(CNc2nc3ccccc3o2)C1` (stereo not drawn), 1.85%. For the compound `CC(C)NC(=O)c1cnc(Sc2nccn2C)c(Cl)c1`, the cytotoxicity at 70.5 h stood at 9.84%. With `Cc1ccccc1CN(C)C(=O)CCc1nc(-c2nnc[nH]2)no1` the figure was 8.55%. As to `CC1CCCCN1C(=O)c1cn(-c2ccc(C(F)(F)F)cn2)nn1` (stereo not drawn), the cytotoxicity at 70.5 h was -6.25%. Turning to `Cc1cc(NC(=O)c2ccc(N3CCOCC3)c(F)c2)[nH]n1`, the cytotoxicity at 70.5 h is -1.35%.

In the case of `CCC(NC(=O)c1cccc(N2CCCC2=O)c1)c1ccc(OC)cc1` (stereo not drawn), the cytotoxicity at 70.5 h was -4.2%. On to `Cc1cc(C(=O)N(C)S(C)(=O)=O)ccc1F`, for which the cytotoxicity at 70.5 h was found to be 11.2%.

Take `Cc1cc(C(=O)N(C)S(=O)(=O)C(C)C)ccc1F`: the cytotoxicity at 70.5 h is -4.29%. With `O=C1CCCCN1CSc1nnnn1-c1ccc(Cl)cc1` the figure was -4.94%; with `CCc1ccc2c(c1)C(CCNC(=O)c1sccc1C)C(=O)N2` (stereo not drawn), -3.5%; with `CN(CCCc1ccccc1)C(=O)CCc1nc(-c2nnc[nH]2)no1`, -0.426%. In the case of `CC(C#N)CN(C)Cc1ccc(Cl)c2cccnc12` (stereo not drawn), the cytotoxicity at 70.5 h is -3.13%.

With `Cc1n[nH]cc1CNC(=O)CCCc1cccs1`, the cytotoxicity at 70.5 h is -3.35%. With `Cc1ccc(S(=O)(=O)NC(=O)CCc2ccco2)cc1N(C)C` the figure was 20.1%.

`Cc1cc(CN2CCN(Cc3cc(C#N)ccc3F)CC2)no1`: the cytotoxicity at 70.5 h was 0.144%. `Cc1cc(CN2CCN(Cc3ccccc3F)CC2)no1`: the cytotoxicity at 70.5 h came to 6.67%.

As to `O=C(CSc1nnc(N2CCOCC2)s1)NC(=O)Nc1ccccc1`, the cytotoxicity at 70.5 h was -4.91%. With `O=C(Nc1cn[nH]c1)N1CCN(CCSc2ccccc2)CC1` the figure was 1.53%. In the case of `Cc1cc(C2CCCN2C(=O)c2cnn(C)c2)on1` (stereo not drawn), the cytotoxicity at 70.5 h came out at 14%.

As to `COC(=O)c1ccc(C(=O)N2CCc3c(ncn3C3CC3)C2)cc1`, the cytotoxicity at 70.5 h is -5.37%. As to `O=C(Nc1cccc(F)c1)N1CCC(CO)(Nc2ccccc2)CC1`, the cytotoxicity at 70.5 h was -5.91%. For `Cn1cc(-c2nc(C(=O)N3CCCC3c3cnn(C)c3)cs2)cn1` (stereo not drawn), the cytotoxicity at 70.5 h was -5.1%. As for `CS(=O)(=O)c1ccccc1-n1cc(NC(=O)CC2C=CCC2)cn1` (stereo not drawn), the cytotoxicity at 70.5 h is -6.16%.

Consider `Cc1ccc(C2CCCCCN2C(=O)Nc2cn[nH]c2)o1` (stereo not drawn), for which the cytotoxicity at 70.5 h was -6.84%.

On to `COc1ncccc1C(=O)Nc1cccc(C[S+](C)[O-])c1C` (stereo not drawn), for which the cytotoxicity at 70.5 h is -6.07%.

Take `Cc1sc(NC(=O)CN(C)CCOc2cccc(F)c2)c(C)c1C`: the cytotoxicity at 70.5 h was -2.66%. `CCOc1ccccc1C(=O)Nc1cccc(C[S+](C)[O-])c1C` (stereo not drawn): the cytotoxicity at 70.5 h came to 15.1%.

As to `O=S(=O)(CCOc1ccc(F)cc1)Nc1cnn(CC(F)F)c1`, the cytotoxicity at 70.5 h is -6.59%. Take `CCC(CC)C(O)CNC(=O)Cc1c[nH]c2ncccc12` (stereo not drawn): the cytotoxicity at 70.5 h is -4.44%.

Take `O=C(Cc1c[nH]c2ncccc12)NCC(O)c1ccsc1` (stereo not drawn): the cytotoxicity at 70.5 h was found to be 0.0548%. With `Cc1ccncc1NS(=O)(=O)c1ccc(Cl)s1` the figure was -3.59%. With `CN(CC(C)(CO)CO)C(=O)Nc1cc(F)cc(F)c1`, the cytotoxicity at 70.5 h is 2.39%. Regarding `Cc1cc(F)cc(NC(=O)N(C)CC(C)(CO)CO)c1`, the cytotoxicity at 70.5 h was -1.87%. As for `N#CCCN(CCC#N)Cc1ccc(Br)c2cccnc12`, the cytotoxicity at 70.5 h was 4.54%. As for `CC(C)c1nnc(CN(C)Cc2ccccc2-c2ccccc2)o1`, the cytotoxicity at 70.5 h is -6.61%. Regarding `O=C(Nc1cnn(Cc2ccccc2)c1)N1CCN(CCO)CC1`, the cytotoxicity at 70.5 h was -4.22%. Regarding `CC(NCC1(N(C)C)CCOCC1)c1ccc(Cl)cc1` (stereo not drawn), the cytotoxicity at 70.5 h was -3.88%. In the case of `CC(=O)N(C)Cc1cccc(NC(=O)c2cnn(C)c2C)c1` it was 22%. Take `O=C(c1csc(I)c1)N1CCc2c(ncn2C2CC2)C1`: the cytotoxicity at 70.5 h was -3.47%. In the case of `CN(C)c1ncccc1C(=O)N1CCc2c(ncn2C2CC2)C1` it was -4.54%. As to `CN(C)CCN(CC1CCCO1)C(=O)Cc1cn2ccccc2n1` (stereo not drawn), the cytotoxicity at 70.5 h is 17.3%. Take `COc1cc(Cl)c(NC(=O)c2cc3c([nH]c2=O)CCCC3=O)cc1OC`: the cytotoxicity at 70.5 h was -7.89%. In the case of `CN(C)c1cc(C(=O)Nc2cccnc2N2CCSCC2)ccn1` it was -9.49%; in that of `CC(C)(C)c1ncc(C(=O)NCc2ccccc2CN2CCCC2)s1`, -6.15%; in that of `O=C(Nc1cccnc1N1CCSCC1)c1ccc2c(c1)CCC2`, -3.24%. As for `Cc1nnc2n1CCN(C(=O)C1CCC(n3cccc3)CC1)C2` (stereo not drawn), the cytotoxicity at 70.5 h is -8.85%. With `Cc1c(C(=O)N2CCOCC2)nnn1-c1ccc2ncccc2c1` the figure was -6.04%; with `CCOCC(=O)Nc1nccn1Cc1ccccc1Cl`, 13.6%. On to `CC(C)N(C)CC(=O)Nc1nccn1Cc1ccccc1Cl`, for which the cytotoxicity at 70.5 h is -2.07%.

For the compound `Cc1c(C(=O)N2CCS(=O)(=O)CC2)nnn1-c1ccc2ncccc2c1`, the cytotoxicity at 70.5 h is -4.2%. As for `CCN(CC)S(=O)(=O)CC(=O)N1CCc2ccc(F)cc21`, the cytotoxicity at 70.5 h is -2.84%. Turning to `CCN(CC)S(=O)(=O)CC(=O)N1CCc2ccc(Cl)cc21`, the cytotoxicity at 70.5 h was -1.78%. With `OCCOc1cc(F)ccc1NCc1cccc(F)c1F` the figure was 1.35%; with `O=C(CNC(=O)c1ccoc1)NC(c1ccc(F)cc1)C(F)(F)F` (stereo not drawn), -3.8%.

In the case of `Cc1cc(CN(C2CC2)C(C)C(C)C)no1` (stereo not drawn), the cytotoxicity at 70.5 h was -2.85%. As to `CC(C)N1CCC(CNC(=O)COc2ccc(F)cc2F)C1` (stereo not drawn), the cytotoxicity at 70.5 h was determined as 4.12%. In the case of `CCN(CC)C(=O)CN(C)C(=O)c1cccn1CCc1ccccc1` it was -3.38%; in that of `CC(C)(C)c1noc(CN2CCCC(CNS(N)(=O)=O)C2)n1` (stereo not drawn), -2.1%; in that of `CN1CCN(C(=O)c2csnn2)c2ccccc21`, 20.8%.

For the compound `Cc1nn(-c2ccccc2)c(C)c1CNC(=O)NC1CC(=O)N(C)C1` (stereo not drawn), the cytotoxicity at 70.5 h is -1.18%.

Regarding `CN(CC(=O)N(C)C1CC1)C1CCN(c2ccc(Cl)cc2)CC1`, the cytotoxicity at 70.5 h was 24.7%. In the case of `COCCC(C)NCc1ccccc1-n1ccnc1` (stereo not drawn) it was -3.09%; in that of `CCOCCNC(=O)CCC1CCCO1` (stereo not drawn), 35.5%. Turning to `Cc1cc(NC(=O)N2CCN(c3cccs3)CC2)ccc1C(N)=O`, the cytotoxicity at 70.5 h came out at 8.16%.

For the compound `Cc1cc(N2CCN(Cc3ccnn3C)CC2)cc(C2CCCN2)n1` (stereo not drawn), the cytotoxicity at 70.5 h is 13%. With `CCN(CC)C(=O)CN1CCc2c(nc(C3CCNCC3)nc2NC)C1` the figure was -8.61%; with `COc1ccc(-c2cc(C3CCNCC3)nc(C)n2)cc1`, -6.57%; with `CCN1CCCc2cc(-c3cncn3C(C)CN3CCOCC3)ccc21` (stereo not drawn), -4.04%. On to `CCC(CN1CCOCC1)n1cncc1-c1ccc2c(c1)CCCN2C` (stereo not drawn), for which the cytotoxicity at 70.5 h was -6.78%.

Consider `Cc1ccc(-c2cc(C3CCNCC3)nc(C)n2)cc1`, for which the cytotoxicity at 70.5 h was -6.7%.

Turning to `Cc1cccc(Nc2cc(C)nc(C3CCN(C(C)C)C3)n2)n1` (stereo not drawn), the cytotoxicity at 70.5 h is 15.7%. With `CNc1ccccc1C(=O)N(C)CCc1ccccc1` the figure was -5.46%.
